Experimental data as given in the supplement of paper PMC4862054.

Assays:
Conditions in all cases: incubation time: 72 h
BT-474 [1] = test: normalised response (% of control), CellTox Green; higher = less cell death (100 = DMSO, 0 = benzethonium chloride kill control)
Summary of the method: (§1)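 Breast cancer cell lines in 20 µl suspension were added to 384-well plates containing compound at 5 concentrations, spaced in 10-fold steps across a 10,000-fold range chosen for each compound, and incubated for 72 h. CellTox Green fluorescence was read at 485/520 nm, followed by CellTiter-Glo luminescence after 10 min at room temperature. Signals on each plate were normalised so that 0.1 % DMSO equals 100 and a positive kill control equals 0. Every value in the table is the normalised signal at one concentration of the series.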

BT-549 [2] = test: as above
Summary of the method: as §1

CAL-120 [3] = test: as above
Summary of the method: as §1

CAL-148 [4] = test: as above
Summary of the method: as §1

CAL-51 [5] = test: as above
Summary of the method: as §1

CAL-85-1 [6] = test: as above
Summary of the method: as §1

DU-4475 = test: as above
Summary of the method: as §1

HCC1599 [7] = test: as above
Summary of the method: as §1

HCC1937 [8] = test: as above
Summary of the method: as §1

HDQ-P1 [9] = test: as above
Summary of the method: as §1

Hs578T = test: as above
Summary of the method: as §1

MCF-10A = test: as above
Summary of the method: as §1

MDA-MB-231 [10] = test: as above
Summary of the method: as §1

MDA-MB-436 = test: as above
Summary of the method: as §1

MDA-MB-453 = test: as above
Summary of the method: as §1

MDA-MB-468 [11] = test: as above
Summary of the method: as §1

MFM-223 [12] = test: as above
Summary of the method: as §1

BT-474 [13] = test: normalised response (% of control), CellTiter-Glo; higher = more viable cells (100 = DMSO, 0 = benzethonium chloride kill control)
Summary of the method: as §1

BT-549 [14] = test: as above
Summary of the method: as §1

CAL-120 [15] = test: as above
Summary of the method: as §1

CAL-148 [16] = test: as above
Summary of the method: as §1

CAL-51 [17] = test: as above
Summary of the method: as §1

CAL-85-1 [18] = test: as above
Summary of the method: as §1

HCC1143 = test: as above
Summary of the method: as §1

HCC1599 [19] = test: as above
Summary of the method: as §1

HCC1937 [20] = test: as above
Summary of the method: as §1

HDQ-P1 [21] = test: as above
Summary of the method: as §1

MDA-MB-231 [22] = test: as above
Summary of the method: as §1

MDA-MB-468 [23] = test: as above
Summary of the method: as §1

MFM-223 [24] = test: as above
Summary of the method: as §1

SK-BR-3 = test: as above
Summary of the method: as §1

Row | SMILES | normalised response (BT-474 [1]) | normalised response (BT-549 [2]) | normalised response (CAL-120 [3]) | normalised response (CAL-148 [4]) | normalised response (CAL-51 [5]) | normalised response (CAL-85-1 [6]) | normalised response (DU-4475) | normalised response (HCC1599 [7]) | normalised response (HCC1937 [8]) | normalised response (HDQ-P1 [9]) | normalised response (Hs578T) | normalised response (MCF-10A) | normalised response (MDA-MB-231 [10]) | normalised response (MDA-MB-436) | normalised response (MDA-MB-453) | normalised response (MDA-MB-468 [11]) | normalised response (MFM-223 [12]) | normalised response (BT-474 [13]) | normalised response (BT-549 [14]) | normalised response (CAL-120 [15]) | normalised response (CAL-148 [16]) | normalised response (CAL-51 [17]) | normalised response (CAL-85-1 [18]) | normalised response (HCC1143) | normalised response (HCC1599 [19]) | normalised response (HCC1937 [20]) | normalised response (HDQ-P1 [21]) | normalised response (MDA-MB-231 [22]) | normalised response (MDA-MB-468 [23]) | normalised response (MFM-223 [24]) | normalised response (SK-BR-3)
1 | COc1cc([C@@H]2c3cc4c(cc3[C@@H](O[C@@H]3O[C@@H]5CO[C@@H](C)O[C@H]5[C@H](O)[C@H]3O)[C@H]3COC(=O)[C@H]23)OCO4)cc(OC)c1O [Etoposide] (10000 nM) | 97.3% | 85.4% | 75.7% | 49.6% | 36.8% | 34.3% | 78.4% | 91% | 106% | 109% | 88.2% | 108% | 61% | 80.9% | 109% | -48% | 103% | 44.1% | 35.9% | 73.7% | 39.9% | 23.9% | 49.8% | 38.8% | 11.8% | 67.5% | 82.3% | 70.8% | 38.5% | 90.8% | 15.8%
2 | CN(N=O)C(=O)N[C@@H](C=O)[C@@H](O)[C@H](O)[C@H](O)CO [Streptozocin] (10000 nM) | 105% | 96.1% | 110% | 107% | 102% | 80.7% | 98.1% | 98.6% | 71.6% | 110% | 136% | 116% | 106% | 68.7% | 84.9% | 64.1% | 88.1% | 100% | 97.7% | 109% | 107% | 91.8% | 98.5% | 106% | 92.5% | 105% | 102% | 98% | 104% | 106% | 108%
3 | CCC1=C[C@@H]2CN(C1)Cc1c([nH]c3ccccc13)[C@@](C(=O)OC)(c1cc3c(cc1OC)N(C)[C@H]1[C@@](O)(C(=O)OC)[C@H](OC(C)=O)[C@]4(CC)C=CCN5CC[C@]31[C@@H]54)C2 [Vinorelbine] (10000 nM) | 59.1% | 43.6% | 75.5% | 80.7% | 7% | 71% | 90.9% | 70.8% | 83.1% | 97.8% | -16.6% | 41.4% | -5.22% | 70.8% | 90.3% | 5.11% | 42.7% | 48.2% | 36.1% | 54% | 49.6% | 27.5% | 48.9% | 55.3% | 4.45% | 69.8% | 70.6% | 40.1% | 18.1% | 39.6% | 14.8%
